From patent US11548868B2, “Heterocyclic compounds, compositions comprising heterocyclic compound, and methods of use thereof” (JS INNOPHARM (SHANGHAI) LTD, priority 2017, dated 2023)

Columns and labels:
Recombinant human IDO1 = Recombinant human IDO1 (Homo sapiens, UniProt P14902); assay: IDO1 Enzymatic Assay; details: recombinant human IDO1 40 nM, L-tryptophan 100 μM, 40 min room temperature, N′-formylkynurenine absorbance 321 nm; read-out: IDO1 biochemical activity*
Description: (§1) The IDO1 biochemical inhibitory activity is determined by measuring the decrease in N′-formylkynurenine from tryptophan catalyzed by IDO1 enzyme. Recombinant human IDO1 (40 nM), L-tryptophan (100 μM), L-ascorbic acid (20 mM), methylene Blue (20 μM), catalase (0.2 mg/mL), and serial dilutions of the test compounds in a total volume of […] containing DMSO (with final DMSO concentration of 0.5%) and a pH 7.5 buffer containing potassium phosphate (50 mM) were added into each well in a 96-well plate. After incubation at room temperature for 40 min, the absorbance of the reaction mixture was read at 321 nm to measure the formation of N′-formylkynurenine by SpectraMax microplate reader. Percent inhibition of the test compounds was determined by measuring the decrease in N′-formylkynurenine as compared to the control of DMSO vehicle, which was calculated by formula of (WC−WT)/WC, where WC is the mean absorbance of the control well minus blank well; WT is the mean absorbance of the test well minus the blank well. Data was analyzed by GraphPad Prism 5 and the IC50 values were obtained by non-linear regression.
The IC50 values of IDO1 biochemical activity for the examples disclosed herein are listed in Table 2, A: ≤0.1 μM; B: >0.10 μM and ≤0.5 μM; C: >0.5 μM and ≤1.0 μM; and D: >1.0 μM.

Recombinant human TDO2 = Recombinant human TDO2 (Homo sapiens, UniProt P48775); assay: TDO2 Enzymatic Assay; type: biochemical; details: recombinant human TDO2 200 nM, L-tryptophan 300 μM, 40 min room temperature, N′-formylkynurenine absorbance 321 nm; read-out: TDO2 bichemical activity*
Description: as §1, with “TDO2” for “IDO1”, “TDO2 (200” for “IDO1 (40”, “(300” for “(100”, “(WC-WT)/WC,” for “(WC−WT)/WC,”
The IC50 values of TDO2 biochemical activity for the examples disclosed herein are listed in Table 2, A: ≤0.1 μM; B: >0.10 μM and ≤0.5 μM; C: >0.5 μM and ≤1.0 μM; and D: >1.0 μM.

[1] = target: T1, TDO2 in A172 cancer cells (Homo sapiens, UniProt P48775); assay: TDO2 Cellular Assay (kynurenine production in A172 cancer cells); type: cell-based; details: L-Trp 1 mM, 24 hours incubation, kynurenine at 490 nm
T1 construct: endogenous in cells; host or cells: A172 cancer cells
Procedure, shortened: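 Kynurenine output of A172 cells was read colorimetrically at 490 nm (Ehrlich reagent after TCA hydrolysis at 50 °C). Cells had 1 mM L-Trp plus compound at 0–25 μM in 0.25% DMSO for 24 h; IC50 values were fitted non-linearly from percent inhibition relative to vehicle.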

[2] = target: T2, IDO1 in Hela cancer cells (Homo sapiens, UniProt P14902); assay: IDO1 Cellular Assay (kynurenine production in IFN-γ stimulated Hela cancer cells); type: cell-based; details: human IFN-γ 50 ng/mL, 48 hours incubation, kynurenine at 490 nm
T2 construct: endogenous in cells; host or cells: Hela cancer cells stimulated with human IFN-γ
Procedure, shortened: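 HeLa cells stimulated with 50 ng/mL IFN-γ (final) and treated 48 h with compound (0–25 μM final, 0.25% DMSO). Supernatant kynurenine measured after TCA hydrolysis and p-dimethylaminobenzaldehyde reaction at 490 nm; inhibition vs DMSO control, IC50 by non-linear regression.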

T2 sequence (P14902 whole entry): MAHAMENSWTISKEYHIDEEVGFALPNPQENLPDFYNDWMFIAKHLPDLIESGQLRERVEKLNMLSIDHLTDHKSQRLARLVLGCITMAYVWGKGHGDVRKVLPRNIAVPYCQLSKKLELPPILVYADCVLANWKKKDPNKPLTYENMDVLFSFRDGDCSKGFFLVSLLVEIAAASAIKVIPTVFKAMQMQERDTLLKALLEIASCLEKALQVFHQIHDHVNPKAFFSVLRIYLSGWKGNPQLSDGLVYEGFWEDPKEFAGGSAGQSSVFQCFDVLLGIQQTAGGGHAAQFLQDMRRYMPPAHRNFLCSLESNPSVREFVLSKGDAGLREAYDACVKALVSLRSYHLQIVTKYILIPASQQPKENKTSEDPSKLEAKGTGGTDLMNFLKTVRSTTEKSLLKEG
Sequence of Recombinant human IDO1 (P14902 whole entry): as above
T1 sequence (P48775 whole entry): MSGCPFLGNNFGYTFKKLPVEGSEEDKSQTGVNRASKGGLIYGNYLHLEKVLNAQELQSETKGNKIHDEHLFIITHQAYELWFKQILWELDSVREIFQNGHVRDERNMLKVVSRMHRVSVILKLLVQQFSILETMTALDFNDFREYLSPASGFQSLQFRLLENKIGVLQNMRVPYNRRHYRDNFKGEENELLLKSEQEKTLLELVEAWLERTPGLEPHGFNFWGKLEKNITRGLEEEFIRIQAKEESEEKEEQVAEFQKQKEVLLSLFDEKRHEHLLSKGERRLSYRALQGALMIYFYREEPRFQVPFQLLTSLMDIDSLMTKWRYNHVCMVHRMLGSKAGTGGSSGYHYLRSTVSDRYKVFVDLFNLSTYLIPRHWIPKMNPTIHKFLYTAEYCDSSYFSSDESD
Sequence of Recombinant human TDO2 (P48775 whole entry): as above

Compound | IC50 (Recombinant human IDO1) | IC50 (Recombinant human TDO2) | IC50 [1] | IC50 [2]
CS(=O)(=O)N1C[C@@H]2C[C@@](O)(c3cc(Cl)cc4[nH]ncc34)C[C@@H]2C1 [Example 2, (3aR,5r,6aS)-5-(6-chloro-1H-indazol-4-yl)-2-(methylsulfonyl)octahydrocyclopenta[c]pyrrol-5-ol] | 100 to 500 nM | ≤ 100 nM | ≤ 500 nM | 500 to 1000 nM
CC(=O)N1C[C@@H]2C[C@@](O)(c3cc(Cl)cc4[nH]ncc34)C[C@@H]2C1 [Example 22, 1-((3aR,5r,6aS)-5-(6-chloro-1H-indazol-4-yl)-5-hydroxyhexahydrocyclopenta[c]pyrrol-2(1H)-yl)ethanone] | > 1000 nM | ≤ 100 nM | ≤ 500 nM | > 5000 nM
O[C@@]1(c2cc(Cl)cc3[nH]ncc23)C[C@H]2C[C@H]2C1 [Example 25, (1R,3r,5S)-3-(6-chloro-1H-indazol-4-yl)bicyclo[3.1.0]hexan-3-ol] | 500 to 1000 nM | ≤ 100 nM | ≤ 500 nM | 1000 to 5000 nM

The remaining lines, values ahead:

IC50 (Recombinant human IDO1) | IC50 (Recombinant human TDO2) | IC50 [1] | IC50 [2] | Compound
> 1000 nM | ≤ 100 nM | 500 to 1000 nM | – | CC1(C)C2CN(c3cc(Cl)cc4[nH]ncc34)CC2CN1S(C)(=O)=O (single isomer, unassigned) [Example 1a]
100 to 500 nM | ≤ 100 nM | ≤ 500 nM | > 5000 nM | CC1(C)C2CN(c3cc(Cl)cc4[nH]ncc34)CC2CN1S(C)(=O)=O (single isomer, unassigned) [Example 1b]
500 to 1000 nM | ≤ 100 nM | ≤ 500 nM | – | CC(=O)N1CC2CN(c3cc(Cl)cc4[nH]ncc34)CC2C1(C)C (stereo not shown) [Example 18, 1-(5-(6-chloro-1H-indazol-4-yl)-1,1-dimethylhexahydropyrrolo[3,4-c]pyrrol-2(1H)-yl)ethanone]
